Measured values from patent US7781451B2, “Thiazolopyridine derivatives, pharmaceut ical conditions containing them and methods of treating glucokinase mediated conditions” (Novartis AG, priority 2004, dated 2010).

What was measured:
[1] = biological target: T1, recombinant GST-GK (Homo sapiens, UniProt P35557); experiment: in vitro assay measuring the activation of recombinant GST-GK; type: biochemical; conditions: thioNADH-coupled assay read at 405 nm
T1 sequence (P35557 1-465): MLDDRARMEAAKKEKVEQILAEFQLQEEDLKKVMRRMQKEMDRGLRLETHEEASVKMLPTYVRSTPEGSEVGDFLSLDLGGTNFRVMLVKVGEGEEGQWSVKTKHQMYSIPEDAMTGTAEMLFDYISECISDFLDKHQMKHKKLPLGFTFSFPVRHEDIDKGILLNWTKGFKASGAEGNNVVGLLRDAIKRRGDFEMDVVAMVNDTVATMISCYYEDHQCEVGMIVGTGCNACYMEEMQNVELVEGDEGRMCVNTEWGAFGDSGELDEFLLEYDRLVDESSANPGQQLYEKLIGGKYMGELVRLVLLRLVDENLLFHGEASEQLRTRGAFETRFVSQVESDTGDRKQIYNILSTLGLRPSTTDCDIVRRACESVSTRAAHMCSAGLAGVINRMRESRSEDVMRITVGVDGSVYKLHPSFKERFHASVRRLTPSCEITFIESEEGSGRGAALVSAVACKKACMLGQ
Description: The glucokinase activation in vitro may be determined by measuring the activation of recombinant GST-GK by a compound of the present invention in the absence or the presence of GKRP, a 68,000 Da protein inhibitor of GK. In these assays, formation of glucose-6-phosphate is coupled directly to the formation of thioNADH. GST-GK catalyzes the reaction of glucose and Mg-ATP to produce glucose-6-phosphate and ADP. Glucose-6-phosphate dehydrogenase (G6PDH) reduces thionicotinamide (thioNAD) to thioNADH. The assay measures the formation of […] at 405 nM.
The basic GK assay components are as follows: 25 mM HEPES (pH 7.1), 25 mM KCl, 2.5 mM MgCl2, 1 mM ATP (Sigma A-5394), 1 mM DTT, 1 mM thioNAD (Sigma T-7375), 80 units/mL G6PDH (Sigma G-5885), 10 mM glucose and […] GST-GK (110 nM). For assessing reversal of GK inhibition by GKRP, 20 μM Fructose-1-phosphate ([…]) and 25 μg/mL of recombinant GKRP (370 nM) are added to these assay components. F-1-P at 1 μM is used as a control in the GK/GKRP assay. F-1-P reverses inhibition of GST-GK by GKRP.
The assay is done in standard, 96-well, round-bottom plates and the total assay volume is 25 μL. […] The plates are then delivered via the Zymark XP arm to a Thermomax plate reader and read kinetically over three min at 405 nM at RT. Units are expressed as milli-optical density per minute (mOD/min).

For `CCOCS(=O)(=O)c1ccc(C(CC2CCCC2)C(=O)Nc2nc3ccc(OC)nc3s2)cc1` (stereo not shown) [Example 1, 3-Cyclopentyl-2-(4-ethoxymethanesulfonyl-phenyl)-N-(5-methoxy-thiazolo[5,4-b]pyridin-2-yl)-propionamide], the EC50 [1] was ~106 nM and the melting point was 158 to 160 °C.

`COc1ccc2nc(NC(=O)C(CC3CCCC3)c3ccc(S(=O)(=O)CC(C)=O)cc3)sc2n1` (stereo not shown) [Example 2, 3-Cyclopentyl-N-(5-methoxy-thiazolo[5,4-b]pyridin-2-yl)-2-[4-(2-oxo-propane-1-sulfonyl)-phenyl]-propionamide] gave a melting point of 67 to 71 °C.

With `COc1ccc2nc(NC(=O)C(CC3CCCC3)c3ccc(S(=O)(=O)CCc4ccccc4)cc3)sc2n1` (stereo not shown) [Example 3, 3-Cyclopentyl-N-(5-methoxy-thiazolo[5,4-b]pyridin-2-yl)-2-[4-(2-phenyl-ethanesulfonyl)-phenyl]-propionamide] the melting point was 169 to 172 °C.
